According to patent US5547972A, “Therapeutic agents useful for treating inflammatory diseases” (The Boots Company PLC, priority 1991, dated 1996):
Counter-ions that a name gives are not always drawn. Like-named read-outs stand apart in the source and are kept apart here.

System: Zymosan Stimulated Macrophaqes
Assay: Test A: Inhibition of Arachidonic Acid Release from Zymosan Stimulated Macrophages
Assay type: cell-based, mouse (female MF1)
Conditions: inhibition of arachidonic acid release, six concentrations (100, 50, 20, 10, 5 and 1 μM), 5 h with zymosan, read-out: Test A IC50
Procedure: Inhibition of Arachidonic Acid Release from Zymosan Stimulated Macrophaqes
Female MF1 mice (weighing 20 to 25 g) were killed using a rising concentration of CO2. The mice were laid on their backs and the abdomens wiped with 70% alcohol. The skin was pulled back, exposing the peritoneal wall. Medium A (5 ml) (see below) was injected into the peritoneal cavity of each mouse followed by approximately 1 ml of air using a 20 ml syringe and a 21 G×40 mm needle in order to form a suspension of macrophage cells. The medium and cells were then removed using a 19 G×40 mm needle. The resulting suspension was returned to a sterile beaker kept on ice. The extracts from all the mice were pooled and this pooled cell suspension was counted using a Coulter counter and adjusted to a final cell count of 1-1.3×10^6 cells/ml prior to labelling with [^3 H]-arachidonic acid. Typically five mice provided sufficient cells for each multiwell plate.
Sufficient [^3 H]-arachidonic acid in ethanol to give a final concentration of 1.6 μCi/ml (equivalent to 40 μCi/plate) was blown to dryness under nitrogen. The arachidonic acid was then resuspended in 1 or 2 ml of the cell suspension which was then mixed with the remainder of the cell suspension in a centrifuge bottle. The labelled cell suspension was then plated out into sterile plastic 96 flat-bottomed well plates (250 μl per well) and incubated overnight at 37° C. in a moist atmosphere of 5% CO2, 95% air.
The following day, non-adherent cells were removed by washing 3 times with sterile phosphate buffered saline (PBS). The adherent peritoneal macrophages were then cultured for a further 24 hours in the presence or absence of drugs, in medium B (see below) at 37° in a 5% CO2 atmosphere in order to measure the effects of drugs on the spontaneous release of arachidonic acid in the absence of stimulus. After this incubation, supernatants were removed to give media 1 and stored in sealed multi-well plates at 4° C. prior to scintillation counting. Drugs which potentiated spontaneous release of arachidonic acid (125% of controls) were deemed to be toxic at the concentration at which this phenomenon occurred. The supernatants were replaced by fresh medium C containing fresh drug and a stimulus. Three drugs were tested at six concentrations (100, 50, 20, 10, 5 and 1 μM) in replicates of four on each plate. The other wells contained controls consisting of a positive control (e.g. dexamethasone), medium (B) only and medium C only.
Incubation was then continued for a further 5 hours, whereupon the supernatants were collected to give media 2 and the adherent cells washed with PBS. The cells were then lysed with 100 μl of 0.1% TRITON® X100 in a 0.1% solution of bovine serum albumin in 0.9% saline and mechanically disrupted to give cell lysates. These supernatants (media 2) and cell lysates (Cells) were also stored in sealed multi-well plates at 4° C. prior to scintillation counting. 200 μl aliquots of media, or 100 μl aliquots of cells were counted using 2 ml of OPTIPHASE "HIGH SAFE" (Trademark of LKB) as scintillant.
The percentage of arachidonic acid released was calculated using the mean values for each group of 4 wells in the following equation. [formula] cpm=courts per minute
The value for the arachidonic acid release in the absence of stimulus (spontaneous, cpm of media 2) from cells which had been exposed to neither stimulus nor drug was subtracted from all equivalent values (cpm media 2, stimulated with or without drug) to give the net stimulated release. The percentage inhibition of arachidonic acid release caused by a drug may then be calculated using the following equation. [formula]
Compounds of formula I were tested at six concentrations (100, 50, 20, 10, 5 and 1 μM) and IC50 values calculated. Compounds with IC50 values<100 μM are considered to be active. Advantageous compounds have an IC50 value <50 μM.
Medium A (for peritoneal lavage) […]

Row | IC50 (Mus musculus, Macrophage, 5 h) [µM] | Compound | other results
1 | 65 | CCc1ccc(C(C)NCCCn2ccnc2)cc1 (stereo not drawn) [Example 21, N-[1-(4-Ethylphenyl)ethyl]-3-(imidazol-1-yl)propylamine hemioxalate] | 
2 | 22 | CC(NCCCn1ccnc1)c1ccc(OC(F)(F)F)cc1 (stereo not drawn) [Example 23, 3-(Imidazol-1-yl)-N-[1-(4-trifluoromethoxyphenyl)ethyl]propylamine sesquicitrate] | 
3 | 14 | CC(C)(NCCCn1ccnc1)c1ccc(-c2ccccc2)cc1 [Example 81, N-[1-(4-Biphenylyl)-1-methylethyl]-3-(imidazol-1-yl)propylamine dihydrochloride] | 
4 | 86 | Clc1ccc(CNCCCCn2ccnc2)cc1 [Example 46, N-(4-Chlorobenzyl)-4-(imidazol-1-yl)butylamine dihydrochloride] | 
5 | 60 | CC(NCCCn1ccnc1)c1ccc(Cl)c(Cl)c1 (stereo not drawn) [Example 3, N-[1-(3,4-Dichlorophenyl)ethyl]-3-(imidazol-1-yl)propylamine] | 
6 | 70 | CC(C)(CNCc1ccc(Cl)cc1)Cn1ccnc1 [Example 61, N-(4-chlorobenzyl)-3-(imidazol-1-yl)-2,2-dimethylpropylamine] | 
7 | 90 | Brc1ccc(CNCCCn2ccnc2)cc1 [Example 36, N-(4-Bromobenzyl)-3-(imidazol-1-yl)propylamine] | 
8 | 15 | Cc1cn(CCCNCc2ccc(Cl)cc2)c(-c2ccccc2)n1 [Example 48, N-(4-chlorobenzyl)-3-(4-methyl-2-phenylimidazol-1-yl)propylamine] | 
9 | 28 | CC(C)(NCCCn1ccnc1)c1ccc2ccccc2c1 [Example 83, N-[1-(2-Naphthyl)-1-methylethyl]-3-(imidazol-1-yl)propylamine dihydrochloride hemihydrate] | 
10 | 70 | CC(C)(NCCCn1cnc([N+](=O)[O-])c1)c1ccc(Cl)cc1 [Example 74, N-[1-(4-Chlorophenyl)-1-methylethyl]-3-(4-nitroimidazol-1-yl)propylamine] | 
11 | 78 | CCC(CC)(NCCCn1cnc(CO)c1)c1ccccc1 [Example 86, 1-[3-(1-ethyl-1-phenylpropylamino)propyl]imidazol-4-yl-methanol] | 
12 | 20 | CCCOC(=O)c1ccc(CNCCCn2ccnc2C)cc1 [Example 94, propyl 4-[3-(2-methylimidazol-1-yl)propylaminomethyl]benzoate] | 
13 | 50 | CCOc1cc(Cl)ccc1C(C)NCCCn1ccnc1 (stereo not drawn) [Example 18, N-[1-(4-Chloro-2-ethoxyphenyl)ethyl]-3-(imidazol-1-yl)propylamine] | 
14 | 85 | CC(C)(NCCCn1cnc(CO)c1)c1ccc(Cl)cc1 [Example 79, 1-{3-[1-(4-Chlorophenyl)-1-methylethylamino]propyl}imidazol-4-yl-methanol] | 
15 | 92 | CC(NCCCn1ccnc1)c1ccc(N(C)C)cc1 (stereo not drawn) [Example 6, N-[1-(4-Dimethylaminophenyl)ethyl]-3-(imidazol-1-yl)-propylamine] | 
16 | 62 | CC(c1ccc(Cl)cc1)N(C)CCCn1ccnc1 (stereo not drawn) [Example 90, N-[1-(4-chlorophenyl)ethyl]-3-(imidazol-1-yl)-N-methylpropylamine] | 

The next lines start with the compound.

Row | Compound | IC50 (Mus musculus, Macrophage, 5 h) [µM] | other results
17 | A mixture of N-[1-(4-chlorophenyl)-1-methylethyl]-3-(4-methylimidazol-1-yl)propylamine and N-[1-(4-chlorophenyl)-1-methylethyl]-3-(5-methylimidazol-1-yl)propylamine [Example 69] |  | IC50: 11 µM
18 | Cc1nccn1CCCCCNCc1ccc(Cl)cc1 [Example 95, N-(4-chlorobenzyl)-5-(2-methylimidazol-1-yl)pentylamine] | 4 | 
19 | COc1cc(Cl)ccc1C(C)NCCCn1ccnc1 (stereo not drawn) [Example 17, N-[1-(4-Chloro-2-methoxyphenyl)ethyl]-3-(imidazol-1-yl)propylamine] | 90 | 
20 | CCC(CC)(NCCCn1cnc(COC(C)=O)c1)c1ccccc1 [Example 103, 1-[3-(α,α-diethylbenzylamino)propyl]imidazol-4-ylmethyl acetate] | 51 | 
21 | FC(F)(F)c1ccc(CNCCCn2ccnc2)cc1 [Example 37, 3-(Imidazol-1-yl)-N-(4-trifluoromethylbenzyl)propylamine dihydrochloride] | 75 | 
22 | CC(C)(NCCCn1ccnc1)c1ccc(OCc2ccccc2)cc1 [Example 87, N-[1-(4-Benzyloxyphenyl)-1-methylethyl]-3-(imidazol-1-yl)propylaminedihydrochloride] | 12 | 
23 | CN(CCCn1ccnc1)C(C)(C)c1ccc(Cl)cc1 [Example 96, N-[1-(4-chlorophenyl)-1-methylethyl]-3-(imidazol-1-yl)-N-methylpropylamine] | 75 | 
24 | CC(NCCCn1ccnc1)c1ccc(F)cc1 (stereo not drawn) [Example 4, N-[1-(4-Fluorophenyl)ethyl]-3-(imidazol-1-yl)propylamine] | 95 | 
25 | FC(F)(F)Oc1ccc(CNCCCn2ccnc2)cc1 [Example 38, 3-(Imidazol-1-yl)-N-(4-trifluoromethoxybenzyl)propylamine dihydrochloride] | 80 | 
26 | Cc1cn(CCCNCc2ccc(Cl)cc2)c(C)n1 [Example 42, N-(4-chlorobenzyl)-3-(2,4-dimethylimidazol-1-yl)propylamine dihydrochloride] | 8 | 
27 | CCOC(=O)c1ccc(C(C)NCCCn2ccnc2)cc1 (stereo not drawn) [Example 20, Ethyl 4-{1-[3-(imidazol-1-yl)propylamino]ethyl}benzoate] | 70 | 
28 | CC(C)(NCCCCCCCCn1ccnc1)c1ccc(Cl)cc1 [Example 63, N-[1-(4-chlorophenyl)-1-methylethyl]-8-(imidazol-1-yl)octylamine] | 7 | 
29 | CC(C)(NCCCn1ccnc1)c1ccc(Cl)cc1 [Example 99, N-[1-(4-chlorophenyl)-1-methylethyl]-3-(imidazol-1-yl)propylamine citrate] |  | IC50 (citrate): 14 µM
30 | CC(C)(NCCCn1ccnc1)c1ccc(Cl)cc1 [Example 100, N-[1-(4-chlorophenyl)-1-methylethyl]-3-(imidazol-1-yl)propylamine (+)tartrate dihydrate] |  | IC50 (dihydrate): 20 µM
31 | Cc1nccn1CCCN(C)Cc1ccc(Cl)cc1 [Example 97, N-(4-chlorobenzyl)-N-methyl-3-(2-methylimidazol-1-yl)propylamine] | 60 | 
32 | Cc1cc(C(C)NCCCn2ccnc2)ccc1Cl (stereo not drawn) [Example 12, N-[1-(4-Chloro-3-methylphenyl)ethyl]-3-(imidazol-1-yl)propylamine] | 36 | 
33 | CC(NCCCn1ccnc1)c1cc(Cl)ccc1Cl (stereo not drawn) [Example 15, N-[1-(2,5-Dichlorophenyl)ethyl]-3-(imidazol-1-yl)propylamine] | 72 | 
